Data on 12 molecules can be found in patent publication US10392368B2, “Pyrazolo and triazolo bicyclic compounds as JAK kinase inhibitors” (THERAVANCE BIOPHARMA R&D IP, LLC, priority 2017, dated 2019).

Bounds are passed on as bounds.

Series [1] can be described thus: Colon and plasma mouse pharmacokinetics. The following applies: mouse, colon tissue / plasma; male Balb/c mice, 10 mg/kg PO; 0.5, 2 and 6 hours; read-out: colon to plasma ratio (colon AUC to plasma AUC). Type of series: in vivo. As to the method: 6 male Balb/c mice were administered 10 mg/kg of compound in 1% HPMC+0.1% Tween-80 by PO administration. At 0.5, 2 and 6 hours after dose administration, animals were anesthetized, and terminal blood samples were collected by cardiac puncture, followed by collection of colon contents and colon tissue.
Blood samples were collected into K2EDTA and stored on wet ice until processed to plasma by centrifugation (12000 rpm at 4° C.). Plasma samples were transferred to cluster tubes and placed on dry ice prior to freezer storage. The colon contents from each animal were collected at each terminal blood collection time point. The colon tissues were flushed with saline and patted dry. The colon and colon content tissues were homogenized using sterile water containing 0.1% formic acid 9:1 (water:tissue, v/w). The homogenized tissues and colon contents were transferred to cluster tubes and placed on dry ice prior to freezer storage. All samples were analyzed using LC/MS/MS against analytical standards.
The composite pharmacokinetic parameters of the compounds were determined by non-compartmental analysis using Phoenix WinNonlin Version 6 (Certara, St. Louis, Mo.) and using mean values from 2 animals/time point. For plasma concentrations below the quantification limit (BQL), the lowest concentration measurable or the BLOQ (below limit of quantification) was used.
A colon to plasma ratio was determined as the ratio of the colon AUC to the plasma AUC.

Series [2] has as its target T1, Tyk2 (Homo sapiens, UniProt P29597).
T1 construct: GST; purchased Life Technologies
The series is described as follows: Biochemical Tyk2 kinase assay (LanthaScreen). To be noted: read-out: Tyk 2 (pKi) (converted). An outline of the steps:
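TR-FRET readout (520/495 nm) using Tb-labelled pTyr701 antibody after EDTA stop, following 1 h ATP-started phosphorylation of GFP-STAT1 by recombinant GST-JAK. Compounds preincubated 1 h with enzyme and substrate; pIC50 from 4-parameter fit, Cheng-Prusoff gives pKi.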
Background: In TR-FRET formats the signal depends on donor and acceptor labels being close together.

Series [3] has as its system IL-2 induced pSTAT5 in thymus. As to the kind of experiment: Systemic target engagement: murine model of IL-2 induced pSTAT5 induction in thymus. The class given is in vivo, mouse. The text has this: IL-2 is an important cytokine underlying the pathophysiology of gastro-intestinal diseases such as […] bowel disease (IBD; Guan and Zhang. Mediators Inflamm, 2017; 4810258). IL-2 binds to cell surface receptors activating members of the Janus family of kinases (JAK), specifically JAK3, which then phosphorylates STAT5 and subsequently activates further transcription pathways. In this model, a dose of IL-2 was delivered systemically to mice to induce the phosphorylation of STAT5 (pSTAT5) which was then measured as the endpoint.
Adult male Balb/c mice from Harlan were used in the assay. Animals were administered test compound via oral gavage (PO, 10 or 30 mg/kg for single dose studies; 10-60 mg/kg for dose response studies) on the afternoon of the day prior to study and then in the morning on the day of study. Two hours after the second PO dose administration, mice were injected intraperitoneally (i.p.) with 100 μl of an appropriate IL-2 dose (for a total of 1-5 μg/mouse depending upon IL-2 batch; R&D Systems). 90-120 minutes after IL-2 insult, thymus samples were harvested.

For series [4], the system named is oxazolone-induced colitis. The series is described as follows: Mouse model of oxazolone-induced colitis. The class given is in vivo. The following applies: 3 mg/kg (PO, BID). An outline of the steps: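 BALB/c mice skin-sensitized with 4% oxazolone, then challenged intrarectally seven days later with 50 μL 0.8% oxazolone in 1:1 ethanol:water. Oral dosing (QD, BID or TID) or vehicle started one day before challenge. Blinded scoring two days post-challenge: stool consistency plus gross bleeding (0/2/4 each), summed as combined stool score.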

In series [5] the target is T2, JAK2 (Homo sapiens, UniProt O60674).
T2 construct: GST; purchased Life Technologies
T2 sequence (O60674 whole entry): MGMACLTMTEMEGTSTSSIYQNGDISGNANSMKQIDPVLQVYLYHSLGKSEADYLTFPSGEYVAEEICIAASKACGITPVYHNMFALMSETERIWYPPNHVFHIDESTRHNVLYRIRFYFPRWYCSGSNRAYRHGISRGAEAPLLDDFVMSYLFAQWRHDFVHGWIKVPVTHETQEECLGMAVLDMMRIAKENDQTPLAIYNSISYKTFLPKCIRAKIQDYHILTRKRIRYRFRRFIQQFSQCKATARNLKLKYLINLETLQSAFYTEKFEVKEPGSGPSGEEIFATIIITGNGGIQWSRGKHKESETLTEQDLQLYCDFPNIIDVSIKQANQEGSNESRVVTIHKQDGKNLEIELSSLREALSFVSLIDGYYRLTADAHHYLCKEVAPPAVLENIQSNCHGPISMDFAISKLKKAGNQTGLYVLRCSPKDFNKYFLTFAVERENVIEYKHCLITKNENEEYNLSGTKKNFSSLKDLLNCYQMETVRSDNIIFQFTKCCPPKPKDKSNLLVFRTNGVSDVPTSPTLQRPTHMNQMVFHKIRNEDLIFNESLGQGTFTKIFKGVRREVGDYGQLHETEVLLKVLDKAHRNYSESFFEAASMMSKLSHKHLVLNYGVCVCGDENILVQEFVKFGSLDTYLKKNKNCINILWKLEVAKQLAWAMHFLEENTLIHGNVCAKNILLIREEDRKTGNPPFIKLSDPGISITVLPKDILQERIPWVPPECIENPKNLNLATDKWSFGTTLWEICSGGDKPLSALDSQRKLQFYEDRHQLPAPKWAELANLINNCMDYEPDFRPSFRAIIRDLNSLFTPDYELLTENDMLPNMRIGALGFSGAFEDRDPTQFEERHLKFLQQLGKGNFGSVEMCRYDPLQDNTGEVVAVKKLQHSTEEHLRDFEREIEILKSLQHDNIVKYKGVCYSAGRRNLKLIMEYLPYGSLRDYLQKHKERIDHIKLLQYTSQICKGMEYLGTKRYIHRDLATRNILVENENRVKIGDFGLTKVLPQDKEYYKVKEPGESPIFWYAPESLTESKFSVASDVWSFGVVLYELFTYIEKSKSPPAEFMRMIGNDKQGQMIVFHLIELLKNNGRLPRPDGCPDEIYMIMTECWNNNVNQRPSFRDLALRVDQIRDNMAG
As to the kind of experiment: Biochemical JAK2 kinase assay (LanthaScreen). The following applies: read-out: JAK 2 (pKi) (converted). Summed up:
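GST-tagged recombinant JAK2 pre-incubated 1 h at ambient temperature with compound and GFP-STAT1 peptide in HEPES pH 7.5/MgCl2 buffer, then ATP added for a 1 h reaction with 1% DMSO. TR-FRET read after EDTA and Tb-anti-pSTAT1 (pTyr701) addition; IC50 from 4-parameter fit, converted to pKi by Cheng-Prusoff.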

T1 sequence (P29597 whole entry): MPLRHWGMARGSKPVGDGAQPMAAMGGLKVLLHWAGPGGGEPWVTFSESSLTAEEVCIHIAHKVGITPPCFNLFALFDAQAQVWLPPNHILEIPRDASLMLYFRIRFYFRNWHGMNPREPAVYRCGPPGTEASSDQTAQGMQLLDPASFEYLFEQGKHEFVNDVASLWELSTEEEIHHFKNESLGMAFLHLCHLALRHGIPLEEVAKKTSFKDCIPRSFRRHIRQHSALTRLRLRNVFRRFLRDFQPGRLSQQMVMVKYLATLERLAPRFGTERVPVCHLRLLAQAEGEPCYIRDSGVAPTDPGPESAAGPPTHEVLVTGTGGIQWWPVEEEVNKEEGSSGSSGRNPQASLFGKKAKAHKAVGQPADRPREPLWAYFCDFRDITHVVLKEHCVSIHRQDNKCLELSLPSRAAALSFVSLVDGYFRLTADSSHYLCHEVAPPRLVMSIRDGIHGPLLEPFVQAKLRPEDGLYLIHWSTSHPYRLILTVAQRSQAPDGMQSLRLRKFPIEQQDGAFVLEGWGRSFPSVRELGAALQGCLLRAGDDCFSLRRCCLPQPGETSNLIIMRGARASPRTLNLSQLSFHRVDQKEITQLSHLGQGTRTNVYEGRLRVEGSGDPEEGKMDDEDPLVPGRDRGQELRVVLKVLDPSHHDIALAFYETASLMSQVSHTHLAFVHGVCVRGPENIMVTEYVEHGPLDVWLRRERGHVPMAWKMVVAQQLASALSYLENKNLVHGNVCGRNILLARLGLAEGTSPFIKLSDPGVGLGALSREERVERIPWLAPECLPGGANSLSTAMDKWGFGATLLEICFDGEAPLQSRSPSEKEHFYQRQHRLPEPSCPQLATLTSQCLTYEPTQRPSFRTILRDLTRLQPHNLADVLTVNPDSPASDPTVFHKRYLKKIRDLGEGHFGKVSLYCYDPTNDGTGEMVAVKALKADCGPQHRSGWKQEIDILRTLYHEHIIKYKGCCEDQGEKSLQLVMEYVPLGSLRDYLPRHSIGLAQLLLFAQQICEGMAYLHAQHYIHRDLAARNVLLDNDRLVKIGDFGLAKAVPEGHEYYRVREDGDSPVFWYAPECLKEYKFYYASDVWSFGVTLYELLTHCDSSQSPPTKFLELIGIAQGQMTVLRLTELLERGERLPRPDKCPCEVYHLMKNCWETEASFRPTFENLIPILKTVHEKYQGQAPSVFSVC

Regarding `CN(C)C/C=C/C(=O)N1CC(COc2cc(-c3ccc(O)cc3)cc3[nH]ncc23)C1` [Compound 1, (E)-4-(dimethylamino)-1-(3-(((6-(4-hydroxyphenyl)-1H-indazol-4-yl)oxy)methyl)azetidin-1-yl)but-2-en-1-one], the Kp in series [1] is more than 1250. Besides, the Ki in series [2] is more than 100 nM; in series [5] it was 10 to 100 nM. The “inhibition of IL-2 induced pSTAT5 in thymus compared to vehicle” value (from here on “inhibition … compared to vehicle”) in series [3] (PO, 10, 30, 60 and 100 mg/kg) was “no significant inhibition”. Further, the “combined stool score endpoint as compared with vehicle treated animals” value in series [4] is listed as “statistically significant decrease”.

For `C=CC(=O)N1CC(C)(COc2nc(-c3ccc(O)c(F)c3)nc3[nH]ncc23)C1` [Compound 21, 1-(3-(((6-(3-fluoro-4-hydroxyphenyl)-1H-pyrazolo[3,4-d]pyrimidin-4-yl)oxy)methyl)-3-methylazetidin-1-yl)prop-2-en-1-one], in series [1], the Kp was more than 1250. Also, the Ki in series [2] and in series [5] was more than 100 nM throughout. Also, the “combined stool score endpoint as compared with vehicle treated animals” value in series [4] is “statistically significant decrease”.

For the molecule `C=CC(=O)N1CC[C@H](COc2cc(-c3ccc(O)cc3)cc3[nH]ncc23)C1` [Compound 7, (S)-1-(3-(((6-(4-hydroxyphenyl)-1H-indazol-4-yl)oxy)methyl)pyrrolidin-1-yl)prop-2-en-1-one], the Kp in series [1] is more than 1250. The Ki in series [2] was more than 100 nM; in series [5], 10 to 100 nM. The “inhibition … compared to vehicle” value in series [3] (PO, 10 mg/kg) is reported as “no significant inhibition”. In series [4], the “combined stool score endpoint as compared with vehicle treated animals” value was “statistically significant decrease”.

Regarding `C=CC(=O)N1CC(CC)(COc2cc(-c3ccc(O)cc3)nc3[nH]ncc23)C1` [Compound 22, 1-(3-ethyl-3-(((6-(4-hydroxyphenyl)-1H-pyrazolo[3,4-b]pyridin-4-yl)oxy)methyl)azetidin-1-yl)prop-2-en-1-one], the Kp in series [1] is more than 1250. In addition, the Ki in series [2] and in series [5] was more than 100 nM each time.

For `C=CC(=O)N1CC(C(C)(C)Oc2cc(-c3ccc(O)cc3)nc3[nH]ncc23)C1` [Compound 20, 1-(3-(2-((6-(4-hydroxyphenyl)-1H-pyrazolo[3,4-b]pyridin-4-yl)oxy)propan-2-yl)azetidin-1-yl)prop-2-en-1-one], the Kp in series [1] is more than 200. The Ki in series [2] and in series [5] was more than 100 nM in each case.

With `CN(C)C/C=C/C(=O)N1CC(COc2cc(-c3ccc(O)c(F)c3)cc3[nH]ncc23)C1` [Compound 5, (E)-4-(dimethylamino)-1-(3-(((6-(3-fluoro-4-hydroxyphenyl)-1H-indazol-4-yl)oxy)methyl)azetidin-1-yl)but-2-en-1-one], the Kp in series [1] is more than 200. The Ki in series [2] was more than 100 nM; in series [5] it was 10 to 100 nM. Further, the “inhibition … compared to vehicle” value in series [3] (PO, 30 mg/kg) is recorded as “no significant inhibition”. For the same molecule, the “combined stool score endpoint as compared with vehicle treated animals” value in series [4] is “statistically significant decrease”.

In the case of `CN(C)C/C=C/C(=O)N1CCC(C)(Oc2cc(-c3ccc(O)cc3)cc3[nH]ncc23)CC1` [Compound 9, (E)-4-(dimethylamino)-1-(4-((6-(4-hydroxyphenyl)-1H-indazol-4-yl)oxy)-4-methylpiperidin-1-yl)but-2-en-1-one], the Kp in series [1] was more than 200.

`C=CC(=O)N1CC[C@H](Oc2cc(-c3ccc(O)c(Cl)c3)cc3[nH]ncc23)C1` [Compound 2, (S)-1-(3-((6-(3-chloro-4-hydroxyphenyl)-1H-indazol-4-yl)oxy)pyrrolidin-1-yl)prop-2-en-1-one]: the Kp in series [1] is more than 1250. The Ki in series [2] and in series [5] was more than 100 nM throughout. The “inhibition … compared to vehicle” value in series [3] (PO, 10, 30 and 60 mg/kg) is given as “no significant inhibition”. Besides, the “combined stool score endpoint as compared with vehicle treated animals” value in series [4] is listed as “statistically significant decrease”.

For `C=CC(=O)N1CC(COc2nc(-c3ccc(O)cc3)nc3[nH]ncc23)C1` [Compound 4, 1-(3-(((6-(4-hydroxyphenyl)-1H-pyrazolo[3,4-d]pyrimidin-4-yl)oxy)methyl)azetidin-1-yl)prop-2-en-1-one], in series [1], the Kp was more than 1250. Also, the Ki in series [2] and in series [5] was more than 100 nM throughout. In addition, the “inhibition … compared to vehicle” value in series [3] (PO, 30 mg/kg) is listed as “no significant inhibition”. Also, in series [4], the “combined stool score endpoint as compared with vehicle treated animals” value is on record as “statistically significant decrease”.

As for `C=CC(=O)N1CCO[C@@H](C(=O)Nc2cc(-c3ccc(O)cc3)cc3[nH]ncc23)C1` [Compound 6, (R)-4-acryloyl-N-(6-(4-hydroxyphenyl)-1H-indazol-4-yl)morpholine-2-carboxamide], in series [1], the Kp is more than 1250. The Ki was more than 100 nM in series [2] and 10 to 100 nM in series [5]. The “inhibition … compared to vehicle” value in series [3] (PO, 10 mg/kg) was “no significant inhibition”. Further, the “combined stool score endpoint as compared with vehicle treated animals” value in series [4] is on record as “statistically significant decrease”.

With `CN(C)C/C=C/C(=O)N1CC(C#N)(COc2cc(-c3ccc(O)c(F)c3)cc3[nH]ncc23)C1` [Compound 8, (E)-1-(4-(dimethylamino)but-2-enoyl)-3-(((6-(3-fluoro-4-hydroxyphenyl)-1Hindazol-4-yl)oxy)methyl)azetidine-3-carbonitrile], in series [1], the Kp is more than 1250. Further, the Ki in series [2] was more than 100 nM; in series [5], 10 to 100 nM. Besides, in series [3] (PO, 30 mg/kg), the “inhibition … compared to vehicle” value is “no significant inhibition”. Also, in series [4], the “combined stool score endpoint as compared with vehicle treated animals” value is “statistically significant decrease”.

As to `CN(C)C/C=C/C(=O)N1CC(C(C)(C)Oc2cc(-c3ccc(O)c(Cl)c3)cc3[nH]ncc23)C1` [Compound 3, (E)-1-(3-(2-((6-(3-chloro-4-hydroxyphenyl)-1H-indazol-4-yl)oxy)propan-2-yl)azetidin-1-yl)-4-(dimethylamino)but-2-en-1-one], the Kp in series [1] was more than 1250. The Ki in series [2] and in series [5] was more than 100 nM in each case. Besides, in series [3] (PO, 30 and 100 mg/kg), the “inhibition … compared to vehicle” value is “no significant inhibition”. In addition, in series [4], the “combined stool score endpoint as compared with vehicle treated animals” value was “statistically significant decrease”.
